From US20200071351A1, “TACCALONOLIDE MICROTUBULE STABILIZERS” (THE BOARD OF REGENTS OF THE UNIVERSITY OF TEXAS SYSTEM, priority 2016, published 2020)
Where two headings read alike, the source gives them in different places.

Assays:
[1] = tested on: HeLa cells; assay: Inhibition of cellular proliferation, SRB assay, HeLa cells; format: cell-based; settings: for activity at concentrations as high as 30,000 nM: up to 30,000 nM
Method: The ability of the compounds to initiate cytotoxicity was also determined. […] The determination of IC50 values was performed on taccalonolide material after NMR analysis and subsequent lyophilization. Ethanol or DMSO was used as the vehicle for all cellular studies.
The antiproliferative potencies of the taccalonolides were evaluated in HeLa cells using the SRB assay.

[2] = tested on: HeLa cells; assay: Mitotic spindle structures, indirect immunofluorescence; format: cell-based; settings: 18 h, 125 nM AF, 200 nM AI, 35 nM AJ
Method: Cellular microtubules in interphase and mitotic HeLa cells were visualized using indirect immunofluorescence techniques as previously described (Tinley et al., 2003). […] Representative images of interphase and mitotic cells were acquired using a Nikon Eclipse 80i fluorescence microscope and compiled using NIS Elements AR 3.0 software.
The effects of the taccalonolides on mitotic spindle structures were evaluated to test whether they caused mitotic spindle defects leading to cell cycle arrest. β-tubulin and DNA were visualized in HeLa cells by indirect immunofluorescence and DAPI staining, respectively. […] These mitotic cells contained multiple abnormal mitotic spindles, which is another common effect of microtubule stabilizing agents (FIGS. 4A-D).
The microtubule structures in mitotic cells were visualized by indirect immunofluorescence using a β-tubulin antibody.

[3] = HeLa cells, SRB assay, parent taccalonolide, read-out: IC50
[4] = Homo sapiens, HeLa, HeLa cells, SRB assay, parent taccalonolide, read-out: IC50

Compound	IC50 [1, 3]	IC50 [1, 4]	further results
5α-hydroxy-taccalonolide A [Taccalonolide Z]	0.12 µM		
CC(=O)O[C@H]1C[C@H]2[C@H]([C@@H]3[C@@H](O)[C@@H]4[C@H]([C@H](C)[C@@H]5O[C@@]56OC(=O)[C@@](C)(O)[C@]46C)[C@]31C)[C@@H](O)C(=O)[C@H]1C[C@@H]3O[C@@H]3[C@H](OC(C)=O)[C@@]12C [N-epo]			IC50 ([1]; HeLa cells, SRB assay, C22-C23 epoxide of the taccalonolide in the same line, read-out: Corresponding Epoxide IC50): 0.011 µM
CC(=O)O[C@@H]1[C@H]2[C@H]3[C@H]([C@H](OC(C)=O)[C@H](OC(C)=O)[C@]2(C)[C@@H]2[C@@H]1[C@]1(C)C(=C[C@H]2C)OC(=O)[C@@]1(C)O)[C@]1(C)[C@H](C[C@@H]2O[C@@H]2[C@@H]1OC(C)=O)C(=O)[C@@H]3O [Taccalonolide A, reference compound]		5.38 µM	
CC(=O)O[C@@H]1[C@H]2[C@H]3[C@H]([C@H](OC(C)=O)[C@H](OC(C)=O)[C@]2(C)[C@@H]2[C@@H]1[C@]1(C)C(=C[C@H]2C)OC(=O)[C@@]1(C)O)[C@@]1(C)[C@@H](OC(C)=O)[C@H]2O[C@H]2C[C@]1(O)C(=O)[C@@H]3OC(C)=O [Taccalonolide AA]		0.0323 µM	
CC(=O)O[C@H]1[C@H]2[C@H]([C@@H]3[C@@H](O)[C@@H]4[C@H]([C@H](C)C=C5OC(=O)[C@@](C)(O)[C@@]54C)[C@@]3(C)[C@H]1OC(C)=O)[C@@H](O)C(=O)[C@@]1(O)C[C@@H]3O[C@@H]3[C@H](OC(C)=O)[C@]21C [Taccalonolide AB]		2.77 µM	
CC(=O)O[C@@H]1[C@H]2[C@H]3C([C@H](OC(C)=O)[C@H](OC(C)=O)[C@]2(C)[C@@H]2[C@@H]1[C@]1(C)C(=C[C@@]2(C)OO)OC(=O)[C@@]1(C)O)[C@]1(C)[C@H](C[C@@H]2O[C@@H]2[C@@H]1OC(C)=O)C(=O)[C@@H]3O (stereo partly drawn) [Taccalonolide AC]			activity at concentrations as high as 50,000 nM ([1]; HeLa cells, up to 50,000 nM): no activity
CC(=O)O[C@@H]1[C@H]2[C@@H]3C(=O)C(O)=C4C[C@@H]5O[C@@H]5[C@H](OC(C)=O)[C@]4(C)[C@H]3[C@H](OC(C)=O)[C@H](OC(C)=O)[C@]2(C)[C@@H]2[C@@H]1[C@]1(C)C(=C[C@H]2C)OC(=O)[C@@]1(C)O [Taccalonolide AD]	3.48 µM		
CC(=O)O[C@@H]1[C@H]2[C@H]3[C@H]([C@H](OC(C)=O)[C@H](OC(C)=O)[C@]2(C)[C@@H]2[C@@H]1[C@]1(C)C(=C[C@H]2C)OC(=O)[C@@]1(C)O)[C@]1(C)[C@H](C[C@@H]2O[C@@H]2[C@@H]1OC(C)=O)C(=O)C3(O)O [Taccalonolide AE]	5.01 µM		
CC(=O)O[C@H]1C[C@H]2[C@H]([C@@H]3[C@@H](O)[C@@H]4[C@H]([C@H](C)C=C5OC(=O)[C@@](C)(O)[C@@]54C)[C@]31C)[C@@H](O)C(=O)[C@H]1C[C@@H]3O[C@@H]3[C@H](OC(=O)CC(C)C)[C@@]12C [Taccalonolide AI]	0.047 µM		effect on mitotic spindle structures [2]: mitotic arrest of cells with multiple abnormal mitotic spindles
CC(=O)O[C@H]1C[C@H]2[C@H]([C@@H]3[C@H]4OC(=O)[C@@](C)(O)[C@@]5(C)C(=O)C[C@@H](C)[C@@H]([C@@H]45)[C@]31C)[C@@H](O)C(=O)[C@H]1C[C@@H]3O[C@@H]3[C@H](OC(C)=O)[C@@]12C [Taccalonolide AK]	> 30 µM		activity at concentrations as high as 30,000 nM ([1]; HeLa cells): no activity
CC(=O)O[C@H]1C[C@H]2[C@H]([C@@H]3[C@@H](O)[C@@H]4[C@H]([C@H](C)C=C5OC(=O)[C@@](C)(O)[C@@]54C)[C@]31C)[C@@H](O)C(=O)[C@@]1(O)C[C@@H]3O[C@@H]3[C@H](OC(=O)CC(C)C)[C@]21C [Taccalonolide AM]	1.2 µM		
CC(=O)O[C@H]1C[C@H]2[C@H]([C@@H]3[C@@H](O)[C@@H]4[C@H]([C@H](C)C=C5OC(=O)[C@@](C)(O)[C@@]54C)[C@]31C)[C@@H](O)C(=O)[C@H]1C[C@@H]3O[C@@H]3[C@H](O)[C@@]12C [Taccalonolide AN]	1 µM		
CC(=O)O[C@H]1[C@H]2[C@H]([C@@H]3[C@H]4OC(=O)[C@@](C)(O)[C@@]5(C)C(=O)C[C@@H](C)[C@@H]([C@@H]45)[C@@]3(C)[C@H]1OC(C)=O)[C@@H](O)C(=O)[C@H]1C[C@@H]3O[C@@H]3[C@H](OC(C)=O)[C@]21C [Taccalonolide AO]	> 30 µM		activity at concentrations as high as 30,000 nM ([1]; HeLa cells): no activity
CC(=O)O[C@H]1[C@H]2[C@H]([C@@H]3[C@@H](O)[C@@H]4[C@H]([C@H](C)C=C5OC(=O)[C@@](C)(O)[C@@]54C)[C@@]3(C)[C@H]1OC(C)=O)[C@@H](O)C(=O)[C@H]1C[C@@H]3O[C@@H]3[C@H](OC(C)=O)[C@]21C [Taccalonolide B, reference compound]		3.12 µM	
CC(=O)O[C@@H]1[C@H]2[C@@H]3[C@@H](O)C(=O)[C@H]4C[C@@H]5O[C@@H]5[C@H](OC(C)=O)[C@]4(C)[C@H]3C[C@H](OC(C)=O)[C@]2(C)[C@@H]2[C@@H]1[C@]1(C)C(=C[C@H]2C)OC(=O)[C@@]1(C)O [Taccalonolide E, reference compound]		39.5 µM	
CC(=O)O[C@H]1[C@@H]2[C@H]([C@H](C)C=C3OC(=O)[C@@](C)(O)[C@@]32C)[C@]2(C)[C@@H]1C1=C(O)C(=O)[C@H]3C[C@@H]4O[C@@H]4[C@H](OC(C)=O)[C@]3(C)[C@H]1[C@H](OC(C)=O)[C@@H]2OC(C)=O [Taccalonolide H2]	0.73 µM		more potent than taccalonolide A ([1]; HeLa IC50 ratio): 7.4 fold
CC(=O)O[C@H]1[C@H]2[C@@H](C(=O)[C@H](O)[C@H]3C[C@@H]4O[C@@H]4[C@H](OC(C)=O)[C@]23C)[C@@H]2[C@@H](O)[C@@H]3[C@H]([C@H](C)C=C4OC(=O)[C@@](C)(O)[C@@]43C)[C@@]2(C)[C@H]1OC(C)=O [Taccalonolide I, reference compound]		> 10 µM	
CC(=O)O[C@H]1C[C@H]2[C@H]([C@@H]3[C@@H](O)[C@@H]4[C@H]([C@H](C)C=C5OC(=O)[C@@](C)(O)[C@@]54C)[C@]31C)[C@@H](O)C(=O)[C@H]1C[C@@H]3O[C@@H]3[C@H](OC(C)=O)[C@@]12C [Taccalonolide N, reference compound]		8.5 µM	
CC(=O)O[C@@H]1[C@H]2[C@@H]3[C@@H](OC(C)=O)C(=O)[C@@]4(O)C[C@@H]5O[C@@H]5[C@H](OC(C)=O)[C@]4(C)[C@H]3C[C@H](OC(C)=O)[C@]2(C)[C@@H]2[C@@H]1[C@]1(C)C(=C[C@H]2C)OC(=O)[C@@]1(C)O [Taccalonolide R, reference compound]		13.1 µM	IC50 ([1]; Homo sapiens, HeLa, read-out: IC50): 13 µM
CC(=O)O[C@@H]1[C@H]2[C@@H]3[C@@H](O)C(=O)[C@H]4C[C@@H]5O[C@@H]5[C@H](OC(=O)C(C)C)[C@]4(C)[C@H]3C[C@H](OC(C)=O)[C@]2(C)[C@@H]2[C@@H]1[C@]1(C)C(=C[C@H]2C)OC(=O)[C@@]1(C)O [Taccalonolide S, reference compound]		0.009 µM	
CC(=O)O[C@@H]1[C@H]2[C@@H]3[C@@H](OC(C)=O)C(=O)[C@@]4(O)C[C@@H]5O[C@@H]5[C@H](OC(=O)CC(C)C)[C@]4(C)[C@H]3C[C@H](OC(C)=O)[C@]2(C)[C@@H]2[C@@H]1[C@]1(C)C(=C[C@H]2C)OC(=O)[C@@]1(C)O [Taccalonolide T, reference compound]		0.335 µM	
Taccalonolide AG	0.032 µM		
Taccalonolide AH	0.158 µM		
Taccalonolide AL	18 µM		
Taccalonolide AP	> 30 µM		
Taccalonolide AQ	> 30 µM		activity at concentrations as high as 30,000 nM ([1]; HeLa cells): little to no activity
Taccalonolide AR	> 30 µM		activity at concentrations as high as 30,000 nM ([1]; HeLa cells): little to no activity
Taccalonolide AS	> 10 µM		activity at concentrations as high as 30,000 nM ([1]; HeLa cells): little to no activity
